Measured values as given in the NIST ThermoML archive (doi:10.1021/je050165t).
± gives the expanded uncertainty stated by the source.

Assays:
[1] = xn = mol fraction of the nth substance listed; conditions: 101 kPa, Liquid
[2] = 101 kPa, Liquid

CO [methanol] + CCCCn1cc[n+](C)c1.F[P-](F)(F)(F)(F)F
[1], x2 = 0
Conditions	mass density [kg/m3]	speed of sound [m/s]
298.15 K	786.531 ± 1.8	1102.7 ± 5
303.15 K	781.808 ± 1.9	1086.4 ± 4.9
308.15 K	777.066 ± 1.9	1070.1 ± 4.9
313.15 K	772.283 ± 1.9	1054 ± 4.8
318.15 K	767.474 ± 2	1037.9 ± 4.8

CCCCn1cc[n+](C)c1.F[P-](F)(F)(F)(F)F [1-butyl-3-methylimidazolium hexafluorophosphate]
[2]
Conditions	mass density [kg/m3]	speed of sound [m/s]
298.15 K	1366.66 ± 3.1	1442.4 ± 6.3
303.15 K	1362.4 ± 3.1	1430.6 ± 6.3
308.15 K	1358.3 ± 3.1	1419 ± 6.3
313.15 K	1354.19 ± 3	1407.5 ± 6.2
318.15 K	1350.08 ± 3	1396.3 ± 6.2

CO [methanol]
[2]
Conditions	mass density [kg/m3]	speed of sound [m/s]
298.15 K	786.531 ± 1.8	1102.7 ± 5
303.15 K	781.808 ± 1.9	1086.4 ± 4.9
308.15 K	777.066 ± 1.9	1070.1 ± 4.9
313.15 K	772.283 ± 1.9	1054 ± 4.8
318.15 K	767.474 ± 2	1037.9 ± 4.8

CCCCn1cc[n+](C)c1.F[P-](F)(F)(F)(F)F [1-butyl-3-methylimidazolium hexafluorophosphate] + CO
[1]
Conditions	mass density, 298.15 K [kg/m3]	mass density, 303.15 K [kg/m3]	mass density, 308.15 K [kg/m3]	mass density, 313.15 K [kg/m3]	mass density, 318.15 K [kg/m3]	speed of sound, 298.15 K [m/s]	speed of sound, 303.15 K [m/s]	speed of sound, 308.15 K [m/s]	speed of sound, 313.15 K [m/s]	speed of sound, 318.15 K [m/s]
x1 = 0.0223	852.499 ± 1.4	847.778 ± 1.5	843.039 ± 1.5	838.277 ± 1.5	833.49 ± 1.5	1132.1 ± 5.1	1116.9 ± 5	1101.8 ± 5	1086.7 ± 4.9	1071.7 ± 4.9
x1 = 0.0484	914.856 ± 1	910.156 ± 1.1	905.442 ± 1.1	900.703 ± 1.1	895.952 ± 1.2	1155.5 ± 5.1	1141.5 ± 5.1	1127.5 ± 5	1113.6 ± 5	1099.7 ± 5
x1 = 0.0786	972.943 ± 0.69	968.272 ± 0.71	963.583 ± 0.74	958.877 ± 0.77	954.071 ± 0.8	1180.7 ± 5.2	1167.7 ± 5.2	1154.6 ± 5.1	1141.6 ± 5.1	1128.6 ± 5
x1 = 0.1869	1111.37 ± 1.2	1106.76 ± 1.2	1102.15 ± 1.2	1097.53 ± 1.2	1092.91 ± 1.1	1261.6 ± 5.5	1249.8 ± 5.4	1238 ± 5.4	1226.1 ± 5.4	1214.3 ± 5.3
x1 = 0.2156	1136.5 ± 1.4	1131.89 ± 1.4	1127.3 ± 1.3	1122.7 ± 1.3	1118.12 ± 1.3	1280.7 ± 5.5	1268.9 ± 5.5	1257.2 ± 5.5	1245.5 ± 5.4	1233.8 ± 5.4
x1 = 0.3573	1223.91 ± 2	1219.39 ± 1.9	1214.87 ± 1.9	1210.36 ± 1.9	1205.87 ± 1.9	1340.7 ± 5.8	1329.1 ± 5.7	1317.5 ± 5.7	1306 ± 5.7	1294.5 ± 5.6
x1 = 0.4572	1263.6 ± 2.2	1259.04 ± 2.2	1254.81 ± 2.2	1250.5 ± 2.2	1246.03 ± 2.1	1366.7 ± 5.9	1355.1 ± 5.8	1343.6 ± 5.8	1332.1 ± 5.8	1320.7 ± 5.7
x1 = 0.6222	1308.96 ± 2.6	1304.59 ± 2.5	1300.24 ± 2.5	1295.96 ± 2.5	1291.78 ± 2.5	1400.5 ± 6	1388.9 ± 6	1377.4 ± 6	1365.9 ± 5.9	1354.7 ± 5.9
x1 = 0.7736	1337.5 ± 2.8	1333.24 ± 2.8	1328.99 ± 2.8	1324.76 ± 2.7	1320.54 ± 2.7	1421.1 ± 6.2	1409.5 ± 6.1	1398 ± 6.1	1386.6 ± 6	1375.3 ± 6
x1 = 0.9208	1357.7 ± 3	1353.55 ± 3	1349.39 ± 3	1345.23 ± 2.9	1341.08 ± 2.9	1435.2 ± 6.3	1423.5 ± 6.2	1411.9 ± 6.2	1400.6 ± 6.2	1389.4 ± 6.1
x1 = 1	1366.66 ± 3.1	1362.4 ± 3.1	1358.3 ± 3.1	1354.19 ± 3	1350.08 ± 3	1442.4 ± 6.3	1430.6 ± 6.3	1419 ± 6.3	1407.5 ± 6.2	1396.3 ± 6.2

CC#N [acetonitrile]
[2]
Conditions	mass density [kg/m3]	speed of sound [m/s]
298.15 K	776.533 ± 1.9	1278.6 ± 5.5
303.15 K	771.116 ± 1.9	1258.7 ± 5.5
308.15 K	765.66 ± 2	1238.7 ± 5.4
313.15 K	760.162 ± 2	1218.5 ± 5.3
318.15 K	754.462 ± 2	1198.3 ± 5.3

CC#N [acetonitrile] + CCCCn1cc[n+](C)c1.F[P-](F)(F)(F)(F)F
[1], x2 = 0
Conditions	mass density [kg/m3]	speed of sound [m/s]
298.15 K	776.533 ± 1.9	1278.6 ± 5.5
303.15 K	771.116 ± 1.9	1258.7 ± 5.5
308.15 K	765.66 ± 2	1238.7 ± 5.4
313.15 K	760.162 ± 2	1218.5 ± 5.3
318.15 K	754.462 ± 2	1198.3 ± 5.3

CCCCn1cc[n+](C)c1.F[P-](F)(F)(F)(F)F [1-butyl-3-methylimidazolium hexafluorophosphate] + CC#N
[1]
Conditions	mass density, 298.15 K [kg/m3]	mass density, 303.15 K [kg/m3]	mass density, 308.15 K [kg/m3]	mass density, 313.15 K [kg/m3]	mass density, 318.15 K [kg/m3]	speed of sound, 298.15 K [m/s]	speed of sound, 303.15 K [m/s]	speed of sound, 308.15 K [m/s]	speed of sound, 313.15 K [m/s]	speed of sound, 318.15 K [m/s]
x1 = 0.0453	878.471 ± 1.3	873.235 ± 1.3	866.821 ± 1.3	862.713 ± 1.4	857.428 ± 1.4	1293.5 ± 5.6	1275.1 ± 5.5	1256.7 ± 5.5	1238.4 ± 5.4	1220.2 ± 5.3
x1 = 0.0935	959.103 ± 0.77	954.02 ± 0.8	948.924 ± 0.83	943.817 ± 0.87	938.706 ± 0.9	1308.9 ± 5.6	1291.8 ± 5.6	1274.6 ± 5.5	1257.5 ± 5.5	1240.5 ± 5.4
x1 = 0.2007	1085.08 ± 1.1	1080.25 ± 1.1	1075.41 ± 1	1070.58 ± 0.99	1065.76 ± 0.96	1341.9 ± 5.7	1326.2 ± 5.7	1310.9 ± 5.6	1295.8 ± 5.6	1280.9 ± 5.5
x1 = 0.2966	1159.89 ± 1.6	1155.23 ± 1.5	1150.56 ± 1.5	1145.9 ± 1.5	1141.24 ± 1.4	1366.5 ± 5.8	1352.2 ± 5.8	1338.1 ± 5.7	1324 ± 5.7	1310 ± 5.7
x1 = 0.4241	1228.44 ± 2	1223.91 ± 2	1219.4 ± 2	1214.89 ± 1.9	1210.4 ± 1.9	1389 ± 5.9	1375.6 ± 5.9	1362.3 ± 5.8	1349.2 ± 5.8	1336.3 ± 5.8
x1 = 0.514	1263.52 ± 2.3	1258.71 ± 2.2	1254.64 ± 2.2	1250.22 ± 2.2	1245.81 ± 2.2	1402 ± 6	1389.2 ± 6	1376.5 ± 5.9	1363.8 ± 5.9	1351.2 ± 5.8
x1 = 0.6186	1294.95 ± 2.5	1290.95 ± 2.5	1286.59 ± 2.4	1282.25 ± 2.4	1277.92 ± 2.4	1413.5 ± 6.1	1401 ± 6	1388.7 ± 6	1376.5 ± 6	1364.4 ± 5.9
x1 = 0.7285	1320.82 ± 2.7	1316.59 ± 2.7	1312.32 ± 2.6	1308.06 ± 2.6	1303.82 ± 2.6	1423.9 ± 6.1	1411.8 ± 6.1	1399.9 ± 6.1	1388 ± 6	1376.2 ± 6
x1 = 0.7886	1332.55 ± 2.8	1328.3 ± 2.8	1324.05 ± 2.7	1319.81 ± 2.7	1315.59 ± 2.7	1427.9 ± 6.2	1415.9 ± 6.2	1404.1 ± 6.1	1392.4 ± 6.1	1380.8 ± 6
x1 = 0.8925	1350.78 ± 3	1346.33 ± 2.9	1342.2 ± 2.9	1338.05 ± 2.9	1333.89 ± 2.9	1436.5 ± 6.3	1424.5 ± 6.2	1412.6 ± 6.2	1401 ± 6.2	1389.5 ± 6.1
x1 = 1	1366.66 ± 3.1	1362.4 ± 3.1	1358.3 ± 3.1	1354.19 ± 3	1350.08 ± 3	1442.4 ± 6.3	1430.6 ± 6.3	1419 ± 6.3	1407.5 ± 6.2	1396.3 ± 6.2
